# System: Diabrotica balteata larvae
# Assay: Diabrotica test (larvae in soil)
# Assay type: in vivo
# Conditions: 20 ppm (mg/l soil), Diabrotica balteata larvae on maize in treated soil
row,Structure (SMILES),Kill rate in % after 10 d
1,N#Cc1cnn(C2CN(C(=O)Nc3ccc(SC(F)(F)F)cc3)N=C2c2ccc(Cl)cc2)c1 (stereo not drawn) [drawing 37],100%

# System: caterpillars of the diamond back moth (Plutella xylostella)
# Assay: Plutella test
# Assay type: in vivo
# Conditions: 500 ppm, cabbage leaves dipped
# Method: (§1) To produce a suitable preparation of active compound, 1 part by weight of active compound is mixed with the stated amounts of solvent and emulsifier, and the concentrate is diluted with emulsifier-containing water to the desired concentration.
# Cabbage leaves (Brassica oleracea) are treated by being dipped into the preparation of active compound of the desired concentration and are populated with caterpillars of the diamond back moth (Plutella xylostella) while the leaves are still moist.
# (§2) After the desired period of time, the kill in % is determined. 100% means that all caterpillars have been killed; 0% means that none of the caterpillars have been killed.
row,Structure (SMILES),Kill rate in % after 7 d
1,N#Cc1cnn(C2CN(C(=O)Nc3ccc(OC(F)(F)F)cc3)N=C2c2ccc(Cl)cc2)c1 (stereo not drawn) [drawing 53],100%
2,N#Cc1cnn(C2CN(C(=O)Nc3ccc(C(F)(F)F)cc3)N=C2c2ccc(Cl)cc2)c1 (stereo not drawn) [drawing 54],100%
3,N#Cc1cnn(C2CN(C(=O)Nc3ccc(SC(F)(F)F)cc3)N=C2c2ccc(Cl)cc2)c1 (stereo not drawn) [drawing 56],100%
4,N#Cc1cnn(C2CN(C(=O)Nc3ccc(Cl)cc3)N=C2c2ccc(Cl)cc2)c1 (stereo not drawn) [drawing 55],100%

# System: Boophilus microplus resistent/SP-resistent Parkhurst-strain, adult sucked female
# Assay: Test with Boophilus microplus resistent/SP-resistent Parkhurst-strain
# Assay type: in vivo
# Conditions: 100 μg animal, injected into the abdomen; oviposition of fertile eggs after 7 days
# Method: […] More dilute concentrations are prepared by dilution with the same solvent.
# The test is carried out in 5-fold determination. […] The control of activity is made after 7 days for oviposition of fertile eggs. Eggs whose fertility cannot be seen from the outside are stored in glass tubes in a climate chamber until the larvae have been hatched. An activity of 100% means, that no tick has hatched fertile eggs.
row,Structure (SMILES),activity/kill rate in %
1,N#Cc1cnn(C2CN(C(=O)Nc3ccc(S(=O)(=O)C(F)(F)F)cc3)N=C2c2ccc(Br)cc2)c1 (stereo not drawn) [drawing 91],100%
2,N#CCN(C(=O)N1CC(n2cc(C#N)cn2)C(c2ccc(Cl)cc2)=N1)c1ccc(OC(F)(F)F)cc1 (stereo not drawn) [drawing 92],100%

# System: adult Musca domestica, strain Reichswald (OP, SP, carbamate-resistent)
# Assay: Test with flies (Musca domestica)
# Assay type: in vivo
# Conditions: 100 ppm; treated filter paper; time not given
# Method: 20 mg of active compound are dissolved in 1 ml of dimethyl sulphoxide. More dilute concentrations are prepared by dilution with distilled water.
# 2 ml of the preparation of active compound are pipetted onto a filter paper dish (Ø 9.5 cm), which are placed in a Petri dish of corresponding diameter. After drying of the filter dishes 25 test animals are transferred in the Petri dishes and covered.
# After 1, 3, 5, 24 and 48 hours (or after the times given in the tables below) the activity of the preparation of active compound is determined. 100% means, that all flies have been killed, 0% means, that none of the flies have been killed.
row,Structure (SMILES),activity/kill rate in %
1,N#Cc1cnn(C2CN(C(=O)Nc3ccc(OC(F)(F)F)cc3)N=C2c2ccc(Cl)cc2)c1 (stereo not drawn) [drawing 93],30%
2,N#CCN(C(=O)N1CC(n2cc(C#N)cn2)C(c2ccc(Cl)cc2)=N1)c1ccc(OC(F)(F)F)cc1 (stereo not drawn) [drawing 96],60%
3,N#Cc1cnn(C2CN(C(=O)Nc3ccc(OC(F)(F)F)cc3)N=C2c2ccc(Br)cc2)c1 (stereo not drawn) [drawing 95],75%
4,N#Cc1cnn(C2CN(C(=O)Nc3ccc(C(F)(F)F)cc3)N=C2c2ccc(Cl)cc2)c1 (stereo not drawn) [drawing 94],30%

# System: caterpillars of the army worm (Spodoptera exigua)
# Assay: Spodoptera exigua test
# Assay type: in vivo
# Conditions: 500 ppm, cabbage leaves dipped
# Method: as §1
# Cabbage leaves (Brassica oleracea) are treated by being dipped into the preparation of active compound of the desired concentration and are populated with caterpillars of the army worm (Spodoptera exigua) while the leaves are still moist.
# as §2
row,Structure (SMILES),Kill rate in % after 7 d
1,N#Cc1cnn(C2CN(C(=O)Nc3ccc(SC(F)(F)F)cc3)N=C2c2ccc(Cl)cc2)c1 (stereo not drawn) [drawing 60],100%
2,N#Cc1cnn(C2CN(C(=O)Nc3ccc(C(F)(F)F)cc3)N=C2c2ccc(Cl)cc2)c1 (stereo not drawn) [drawing 59],100%
3,N#Cc1cnn(C2CN(C(=O)Nc3ccc(OC(F)(F)F)cc3)N=C2c2ccc(Cl)cc2)c1 (stereo not drawn) [drawing 58],100%

# System: Heliothis virescens caterpillars
# Assay: Heliothis virescens test
# Assay type: in vivo
# Conditions: 500 ppm, soyabean shoots dipped
# Method: as §1
# Soyabean shoots (Glycine max) are treated by being dipped into the preparation of active compound of the desired concentration and are populated with Heliothis virescens caterpillars while the leaves are still moist.
# as §2
row,Structure (SMILES),Kill rate in % after 7 d
1,N#Cc1cnn(C2CN(C(=O)Nc3ccc(OC(F)(F)F)cc3)N=C2c2ccc(Cl)cc2)c1 (stereo not drawn) [drawing 38],100%
2,N#Cc1cnn(C2CN(C(=O)Nc3ccc(Cl)cc3)N=C2c2ccc(Cl)cc2)c1 (stereo not drawn) [drawing 40],100%
3,N#Cc1cnn(C2CN(C(=O)Nc3ccc(C(F)(F)F)cc3)N=C2c2ccc(Cl)cc2)c1 (stereo not drawn) [drawing 39],100%
4,N#Cc1cnn(C2CN(C(=O)Nc3ccc(SC(F)(F)F)cc3)N=C2c2ccc(Cl)cc2)c1 (stereo not drawn) [drawing 41],100%
